Measured values as given in patent US20240116985A1, “STAPLED PEPTIDES AND METHODS THEREOF” (priority 2020, published 2024).

Assay: CHI Log D procedure
Format: physicochemical

| SMILES | chromatographic logD (pH 7.4, CHI Log D) | CHI Log D (pH 7.4) | also measured |
| --- | --- | --- | --- |
| CC(=O)N1CCC[C@]12CC=CCCCC1(CCCC=CCCCCCC[C@@](C)(C(=O)N[C@@H](Cc3ccc(Cl)cc3)C(=O)N[C@@H](Cc3c[nH]c4ccccc34)C(=O)N[C@@H](CCC(N)=O)C(N)=O)NC(=O)[C@H](C(C)C)NC(=O)[C@H](Cc3ccccc3)NC(=O)[C@H](C)NC(=O)[C@H](C)NC(=O)[C@H](CC(=O)O)NC(=O)[C@H](CC(=O)O)NC1=O)NC(=O)[C@H](C)NC(=O)[C@H](CC(=O)O)NC2=O (single isomer, unassigned) [I-312, Ac-PL3-Asp-Ala-B5-Asp-Asp-Ala-Ala-Phe-Val-S8-4C1F-Trp-Gln-NH2] | 2.13 | – | – |
| CC(=O)N[C@@H](Cc1ccccc1)C(=O)N[C@@H](CC(=O)O)C(=O)N[C@@H](C)C(=O)N[C@]1(C)CCCCCCC=CCOC(=O)N2CC[C@@](C(=O)N[C@@H](Cc3ccccc3)C(=O)N[C@@H](Cc3c[nH]c4ccccc34)C(=O)N[C@@H](CCC(N)=O)C(N)=O)(C2)NC(=O)[C@H](C(C)C)NC(=O)[C@H](Cc2ccccc2)NC(=O)[C@H](C)NC(=O)[C@H](C)NC(=O)[C@H](Cc2cccc3ccccc23)NC(=O)[C@H](CC(=O)O)NC1=O [I-114, Ac-Phe-Asp-Ala-R8-Asp-1NapA-Ala-Ala-Phe-Val-PyrS-Phe-Trp-Gln-NH2] | 2.11 | – | – |
| CC(=O)N[C@@H](Cc1ccccc1)C(=O)N[C@@H](CC(=O)O)C(=O)N[C@@H](C)C(=O)N[C@]1(C)CCCCCCC=CCOC(=O)N2CC[C@@](C(=O)N[C@@H](Cc3ccccc3)C(=O)N[C@@H](Cc3c[nH]c4ccccc34)C(=O)N[C@@H](CCC(N)=O)C(N)=O)(C2)NC(=O)[C@H](C(C)C)NC(=O)[C@H](Cc2ccccc2)NC(=O)[C@H](C)NC(=O)[C@H](C)NC(=O)[C@H](Cc2ccccc2)NC(=O)[C@H](CC(=O)O)NC1=O (single isomer, unassigned) [I-99, Ac-Phe-Asp-Ala-R8-Asp-Phe-Ala-Ala-Phe-Val-PyrS-Phe-Trp-Gln-NH2] | – | – | chromatographic logD (pH 7.4): 1.99 |
| CC(=O)N1CCC[C@]12CC=CCCCC1(CCCC=CCCCCCC[C@@](C)(C(=O)N[C@@H](CCc3ccc(O)cc3)C(=O)N[C@@H](Cc3c[nH]c4ccccc34)C(=O)N[C@@H](CCC(N)=O)C(N)=O)NC(=O)[C@H](C(C)C)NC(=O)[C@H](Cc3ccccc3)NC(=O)[C@H](C)NC(=O)[C@H](C)NC(=O)[C@H](CC(=O)O)NC(=O)[C@H](CC(=O)O)NC1=O)NC(=O)[C@H](C)NC(=O)[C@H](CC(=O)O)NC2=O (stereo partly drawn) [I-269, Ac-PL3-Asp-Ala-B5-Asp-Asp-Ala-Ala-Phe-Val-S8-hTyr-Trp-Gln-NH2] | 1.81 | – | – |
| CC(=O)NC(C)(C)C(=O)N[C@@H](CC(=O)O)C(=O)N[C@@H](C)C(=O)N[C@]1(C)CCCCCCC=CCOC(=O)N2CC[C@@](C(=O)N[C@@H](Cc3ccccc3)C(=O)N[C@@H](Cc3c[nH]c4ccccc34)C(=O)N[C@@H](CCC(N)=O)C(N)=O)(C2)NC(=O)[C@H](C(C)C)NC(=O)[C@H](Cc2ccccc2)NC(=O)[C@H](C)NC(=O)[C@H](C)NC(=O)[C@H](CCC(=O)O)NC(=O)[C@H](CC(=O)O)NC1=O [I-157, Ac-Aib-Asp-Ala-R8-Asp-Glu-Ala-Ala-Phe-Val-PyrS-Phe-Trp-Gln-NH2] | – | 1.202 | – |
| CC(=O)N1CCC[C@]12CC=CCCCC1(CCCC=CCCCCCC[C@@](C)(C(=O)N[C@@H](Cc3ccccc3)C(=O)N[C@@H](Cc3c[nH]c4ccccc34)C(=O)N[C@@H](CCC(N)=O)C(N)=O)NC(=O)[C@H](C(C)C)NC(=O)[C@H](Cc3ccccc3)NC(=O)[C@H](C)NC(=O)[C@H](C)NC(=O)[C@@](C)(CC(C)C)NC(=O)[C@H](CC(=O)O)NC1=O)NC(=O)[C@H](C)NC(=O)[C@H](CC(=O)O)NC2=O (single isomer, unassigned) [I-215, Ac-PL3-Asp-Ala-B5-Asp-DaMeL-Ala-Ala-Phe-Val-S8-Phe-Trp-Gln-NH2] | 2.87 | – | – |

Continued, in another order:

| chromatographic logD (pH 7.4, CHI Log D) | CHI Log D (pH 7.4) | SMILES | also measured |
| --- | --- | --- | --- |
| 1.32 | – | CC(=O)N[C@@H](Cc1ccccc1)C(=O)N[C@@H](CC(=O)O)C(=O)N[C@@H](C)C(=O)N[C@]1(C)CCCCCCC=CCOC(=O)N(C)C[C@@](C)(C(=O)N[C@@H](Cc2ccccc2)C(=O)N[C@@H](Cc2c[nH]c3ccccc23)C(=O)N[C@@H](CCC(N)=O)C(N)=O)NC(=O)[C@H](C(C)C)NC(=O)[C@H](Cc2ccccc2)NC(=O)[C@H](C)NC(=O)[C@H](C)NC(=O)[C@H](CC(=O)O)NC(=O)[C@H](CC(=O)O)NC1=O [I-34, Ac-Phe-Asp-Ala-R8-Asp-Asp-Ala-Ala-Phe-Val-SgN-Phe-Trp-Gln-NH2] | – |
| – | 1.243 | CC(=O)N[C@@H](Cc1ccccc1)C(=O)N[C@@H](CC(=O)O)C(=O)N[C@@H](C)C(=O)NC12CN(C1)C(=O)OCC=CCCCCC[C@@](C)(C(=O)N[C@@H](Cc1ccccc1)C(=O)N[C@@H](Cc1c[nH]c3ccccc13)C(=O)N[C@@H](CCC(N)=O)C(N)=O)NC(=O)[C@H](C(C)C)NC(=O)[C@H](Cc1ccccc1)NC(=O)[C@H](C)NC(=O)[C@H](C)NC(=O)[C@H](CC(=O)O)NC(=O)[C@H](CC(=O)O)NC2=O [I-32, Ac-Phe-Asp-Ala-Az-Asp-Asp-Ala-Ala-Phe-Val-S7-Phe-Trp-Gln-NH2] | – |
| – | 1.243 | CC(=O)N[C@@H](Cc1ccccc1)C(=O)N[C@@H](CC(=O)O)C(=O)N[C@@H](C)C(=O)N[C@]1(C)CCCCCCC=CCOC(=O)N2CC(C(=O)N[C@@H](Cc3ccccc3)C(=O)N[C@@H](Cc3c[nH]c4ccccc34)C(=O)N[C@@H](CCC(N)=O)C(N)=O)(C2)NC(=O)[C@H](C(C)C)NC(=O)[C@H](Cc2ccccc2)NC(=O)[C@H](C)NC(=O)[C@H](C)NC(=O)[C@H](CC(=O)O)NC(=O)[C@H](CC(=O)O)NC1=O (single isomer, unassigned) [I-40, Ac-Phe-Asp-Ala-R8-Asp-Asp-Ala-Ala-Phe-Val-Az-Phe-Trp-Gln-NH2] | – |
| – | 1.376 | CC(=O)N[C@@H](Cc1ccccc1)C(=O)N[C@@H](CC(=O)O)C(=O)N[C@@H](C)C(=O)N[C@]1(C)CCCCCCC=CCOC(=O)N2CC[C@@](C(=O)N[C@@H](Cc3ccccc3)C(=O)N[C@@H](Cc3c[nH]c4ccccc34)C(=O)N[C@@H](CCC(N)=O)C(N)=O)(C2)NC(=O)[C@H](C(C)C)NC(=O)[C@H](CC2CCCCC2)NC(=O)[C@H](C)NC(=O)[C@H](C)NC(=O)[C@H](CC(=O)O)NC(=O)[C@H](CC(=O)O)NC1=O (single isomer, unassigned) [I-75, Ac-Phe-Asp-Ala-R8-Asp-Asp-Ala-Ala-Cha-Val-PyrS-Phe-Trp-Gln-NH2] | – |
| 2.01 | – | CCCC[C@@H]1NC(=O)[C@H](CC(=O)O)NC(=O)[C@](C)(NC(=O)[C@H](C)NC(=O)[C@H](CC(=O)O)NC(=O)[C@H](Cc2ccccc2)NC(C)=O)CCCCCCC=CCOC(=O)N2CC[C@@](C(=O)N[C@@H](Cc3ccccc3)C(=O)N[C@@H](Cc3c[nH]c4ccccc34)C(=O)N[C@@H](CCC(N)=O)C(N)=O)(C2)NC(=O)[C@H](C(C)C)NC(=O)[C@H](Cc2ccccc2)NC(=O)[C@H](C)NC(=O)[C@H](C)NC1=O (single isomer, unassigned) [I-13, Ac-Phe-Asp-Ala-R8-Asp-nLeu-Ala-Ala-Phe-Val-PyrS-Phe-Trp-Gln-NH2] | – |
| 1.26 | – | CC(=O)N[C@@H](Cc1ccccc1)C(=O)N[C@@H](CC(=O)O)C(=O)N[C@@H](C)C(=O)N[C@]1(C)CCCCCCC=CCOC(=O)N2CC(C(=O)N[C@@H](Cc3ccccc3)C(=O)N[C@@H](Cc3c[nH]c4ccccc34)C(=O)N[C@@H](CCC(N)=O)C(N)=O)(C2)NC(=O)[C@H](C(C)C)NC(=O)[C@H](Cc2ccccc2)NC(=O)[C@H](C)NC(=O)[C@H](C)NC(=O)[C@H](CC(=O)O)NC(=O)[C@H](CC(=O)O)NC1=O (single isomer, unassigned) [I-39, Ac-Phe-Asp-Ala-R8-Asp-Asp-Ala-Ala-Phe-Val-Az-Phe-Trp-Gln-NH2] | – |
